{
  "source": "patent US20210228523A1",
  "about": "“MODULATORS OF SESTRIN-GATOR2 INTERACTION AND USES THEREOF” (Navitor Pharmaceuticals, Inc., priority 2017, published 2021)",
  "tested_on": "mTORC1",
  "test": "Western blot of pS6 in multiple regions of the rat brain",
  "assay_type": "in vivo",
  "conditions": "Example C; NV-5138 160 mg/kg oral; 1 hr post-dose; ad libitum access to food",
  "procedure": "Study Design: Ten (10) male rats weighing between 175 and 200 g were randomized into 2 study groups (n=5/group), following a 5-day acclimation period. Group 1 received a single administration of Veh by oral gavage and group 2 received a single administration of NV-5138 (160 mg/kg prepared in Veh) by oral gavage. One hour following administration, rats were sacrificed by conscious decapitation, plasma was collected for analysis of NV-5138 exposure in addition to the isolation of the PFC, hippocampus, striatum, neocortex and cerebellum by microdissection. Total protein extracts were prepared from the harvested tissues and submitted to WB analysis followed by quantitative analysis of selected mTORC1 substrates.\nFormulation of NV-5138 (160 mg/ml): NV-5138 (Navitor, Lot #09) was prepared by dissolving in Veh at a concentration of 160 mg/mL. […]\nWestern Blot Analysis: Synaptosomes preparations (15 μg of total protein) were loaded and separated on NuPAGE 4-12% Bis-Tris gels and transferred to PVDF membrane (Immobilon-FL PVDF membrane, Millipore) using CAPS Buffer (10 mM 3-(Cyclohexylamino)-1-propanesulfonic acid, 12.5% Ethanol pH=10). […] Signals were quantified using the Odyssey Infrared Imaging System (LI-COR Bioscience). The resulting densitometric readings were used to generate a ratio of phopho-protein to α-tubulin. […]",
  "data": [
    {"molecule": "CC(C)(C[C@H](N)C(=O)O)C(F)F", "note": "[NV-5138]", "values": [
      {"measurement": "activation of mTORC1 (pS6) in PFC, striatum, hippocampus, neocortex and cerebellum", "result": "significant activation of mTORC1 in most, but not all of the major regions of the brain"}
    ]}
  ]
}
